Our source for the EC50 and CC50 values is ChEMBL document CHEMBL1147474, “Synthesis of new 2'-beta-C-methyl related triciribine analogues as anti-HCV agents” (Bioorg Med Chem Lett, 2004).

For test [1], the system named is Huh-7. The experiment in a line: Compound was tested for its ability to inhibit hepatitis C viral RNA replication in Huh-7 cells (human hepatoma cells). Type of test: functional, cell-based.
For test [2], the system named is Huh-7. The experiment in a line: Cytotoxicity using HCV replicon assay. The format is functional. As to conditions: Homo sapiens.

What is called EC50 is the midpoint of the concentration-response curve. The low end stands for an effect from little substance, the high end for a need for much substance. Broadly, the CC50 is the concentration giving 50% cytotoxicity. A low value points to greater toxicity to the cells. Compound `CCCCN1N=C(N)c2cn([C@@H]3O[C@H](CO)[C@@H](O)[C@@]3(C)O)c3ncnc1c23` returned a 50% effective concentration (EC50) in test [1] of 100 µM. For the same compound, the 50% cytotoxic concentration (CC50) in test [2] was more than 300 µM.

Turning to `NC1=NN(Cc2ccccc2)c2ncnc3c2c1cn3[C@@H]1O[C@H](CO)[C@@H](O)[C@H]1O`, the EC50 in test [1] stood at 125 µM. Also, the half-maximal cytotoxic concentration (CC50) in test [2] is more than 300 µM.

In test [1], `CCN1N=C(N)c2cn([C@@H]3O[C@H](CO)[C@@H](O)[C@@]3(C)O)c3ncnc1c23` displayed a half-maximal effective concentration (EC50) of 15 µM. In test [2], this compound had a CC50 of more than 200 µM.

Compound `C[C@@]1(O)[C@H](O)[C@@H](CO)O[C@H]1n1cc2c3c(ncnc31)N(CCO)N=C2N` displayed an EC50 in test [1] of 200 µM. Also, in test [2], the CC50 was more than 300 µM.

Consider `CCCN1N=C(N)c2cn([C@@H]3O[C@H](CO)[C@@H](O)[C@@]3(C)O)c3ncnc1c23`, for which a half-maximal response in test [1] (EC50) required 100 µM. This compound returned a half-maximal cytotoxic concentration (CC50) in test [2] of more than 300 µM.

Turning to `CC(=O)NC1=NN(C)c2ncnc3c2c1cn3[C@@H]1O[C@H](CO)[C@@H](O)[C@@]1(C)O`, a half-maximal effect in test [1] (EC50) was put at 150 µM. It took 300 µM to reach half-maximal cytotoxicity in test [2] (CC50).

Compound `NC1=NN(CCO)c2ncnc3c2c1cn3[C@@H]1O[C@H](CO)[C@@H](O)[C@H]1O` showed an EC50 in test [1] of 20 µM. Moreover, the cytotoxic concentration (CC50) in test [2] is more than 300 µM.

In the case of `CC(=O)NC1=NN(CCO)c2ncnc3c2c1cn3[C@@H]1O[C@H](CO)[C@@H](O)[C@@]1(C)O`, it took 100 µM to reach a half-maximal effect in test [1] (EC50). Also, half-maximal cytotoxicity in test [2] (CC50) was put at 200 µM.

`CN1N=C(N)c2cn([C@@H]3O[C@H](CO)[C@@H](O)[C@@]3(C)O)c3ncnc1c23` returned a 50% effective concentration (EC50) in test [1] of 18 µM. Further, in test [2], the cytotoxic concentration (CC50) is more than 300 µM.

In test [1], `CCN1N=C(N)c2cn([C@@H]3O[C@H](CO)[C@@H](O)[C@H]3O)c3ncnc1c23` showed a half-maximal effective concentration (EC50) of 1 µM. The same compound had a CC50 in test [2] of 150 µM.
